Experiments:
[1] = system: transgenic suspension cells (T2 plant 26-4-10); test: In vitro growth of suspension cells on imazethapyr; assay type: cell-based, rice; conditions: 8-week culture
Protocol: (§1) Cell suspension cultures were initiated from immature embryo-derived calli from either transgenic homozygous T2 plant 26-4-10 or Nortai plants in 3SN6d2 liquid medium and cultured two to three months prior to treatment with various concentrations of imazethapyr. The suspension cells were filtered through a 40μ nylon mesh, collected, and resuspended in 3SN6d2 liquid medium 0.2 ml of the suspended cells were loaded onto a Millipore filter, then placed on top of agarose solidified medium containing 0, 0.1, 0.25, 0.5, 1.0, 2.5, 5, 10, 25, or 50 μM imazethapyr (AC263,499). Three weeks later, all cultures were transferred once to fresh media with the same concentrations of imazethapyr and grown for another 5 weeks. Fresh weight was measured at the end of an 8-week culture period.

[2] = system: Nortai (control) suspension cells; test: In vitro growth of suspension cells on imazethapyr; assay type: cell-based, rice
Protocol: as §1

[3] = system: untransformed Nortai (Nt) rice plants; test: Greenhouse spray test of rice with PURSUIT imazethapyr (pre- and post-emergence); assay type: in vivo; conditions: for No. panicles/plant Mean / No. tillers/plant Mean / Plant height Mean / Yield % 0× / Yield Mean: Nt
untransformed rice seeds = test: Seed germination test on imazethapyr; assay type: in vivo
Protocol: (§2) Three tests were performed to evaluate herbicide resistance of T2 progeny of transgenic rice. T2 progeny were first evaluated by a seed germination test followed by the greenhouse spray test and PCR analysis. As a prelude to testing the transgenic plants, an experiment was conducted to germinate untransformed rice seeds at imazethapyr concentrations ranging from 0.1 to 10 μM. […] The greenhouse spray test and PCR analysis were used to further confirm the results of the seed germination test with consistent identification of lines as resistant homozygous, susceptible homozygous or segregating hemizygous.
(§3) T2 seeds harvested from individual T1 plants were sterilized in 50% Clorox® bleach (2.3% sodium hyperchlorite) for 30 min followed by a thorough rinse with autoclaved water and pre-germinated in water for 2-3 days. Thirty to 35 pre-germinated seeds were transferred to the surface of folded paper towels placed perpendicular to the bottom of a Magenta box (Sigma, St. Louis, Mo.) to which 20 ml of H2O containing 5 μM imazethapyr (AC263,499, tech grade) was added. The seedlings were grown under 12 hr light at 26° C. for about a month. Seedlings that survived the imazethapyr treatment were scored as resistant and those that died as susceptible. 5.0 μM imazethapyr, equivalent to 5 times the threshold, was used for subsequent seed germination tests of the T2 generation. T2 seeds harvested from 16 T1 lines derived from T0 plant No. 26 and those from 15 T1 lines derived from T0 plant No. 29 were screened in the seed germination tests.

[4] = system: T2 seeds of transgenic rice (T0 plants No. 26 and 29); test: Seed germination test on imazethapyr; assay type: in vivo; conditions: 5 μM imazethapyr, 1 month treatment
Protocol: as §2, §3

[5] = system: transgenic corn hybrids BAa-4 and MAa-7; test: Greenhouse spray test of corn, statements of the text on both transgenic lines; assay type: in vivo; conditions: 4× (160 g/ha)
Description: Grow one corn plant per pot (5×5 inch) in a 3×5 flat till three- to four-leaf stage (about 9 to 13 days depending on the weather). On the day of spraying, water the plants well and let excess water drip out. Spray plants on a belt-sprayer with the imidazolinone herbicides at desired rates. […] When temperature was too high, base water plants to prevent wilting. Closely observe the plants for the next two to three weeks. Symptoms of herbicide injury will be visible three days after spraying and susceptible plants will die within two to three weeks depending on temperature.
The plants were rated on a scale of 0-5 with 0 for dead plants and 5 for healthy plants with no or minimum injury.
Two transgenic hybrids BAa-4 and MAa-7 lines (see FIG. 5 for their pedigree), a non-transformed control line B×A (B73×A188), 8962IT (heterozygous XI12 imi-tolerant corn line), 8962 (wild type control) and 3395IR (homozygous XA17 imi-resistant corn line) (8962IT and 8962 were from ICI, now Garst Seed Company, Slater, Iowa 50244, and 3395IR was from Pioneer Hi-Bred International Inc, Iowa 50306-3453). Plants were sprayed with 4, 8, 16 or 20×PURSUIT® imazethapyr, ARSENAL® imazapyr, CADRE® imazameth or RAPTOR® imazamox. Plants were scored 0 to 5 (with 0 being dead plants, 5 being healthy plants with no injury) individually 16 days after herbicide treatments. […]

[6] = system: non-transformed Ciccio and Colosseo wheat plants; test: Greenhouse spray test of wheat with RAPTOR imazamox; assay type: in vivo
Description: Sow seed to 3×5-cell flats at about 10 seed per cell. Grow the plants for about two weeks. On the day of spraying, water plants well and let excess water drip out. Spray plants on a belt-sprayer with the imidazolinone herbicides at desired rates. […] Resume regular water schedule three days after spraying. Closely observe the plants for the next two to four weeks. Symptoms of herbicide injury will be visible two weeks after spraying and susceptible plants will die four to six weeks later. We usually measure plant height and score the plant morphology with a 0 to 10 rating with 0 for dead plants and 10 for healthy plants with no or minimum injury.
We also analyzed T2 progeny plants from one of the best lines of 0407-1-10. T2 seeds were planted at 10 seeds per pot and two pots per line were sprayed at 0, 10, 20, 30, 40 and 50 g/ha RAPTOR® imazamox. Most plants did show an increase in resistance over non-transformed control (FIG. 6B).

[7] = post-emergence, Rate 63 (g ai/ha)
[8] = post-emergence, Rate 125 (g ai/ha)
[9] = post-emergence, Rate 250 (g ai/ha)

## CCc1cnc(C2=NC(C)(C(C)C)C(=O)N2)c(C(=O)O)c1 (stereo not drawn) [PURSUIT ®, imazethapyr]
[1]
  concentration up to which growth of transgenic suspension cells was normal: up to 1.0 μm
  concentration with no growth: 5 μm
  concentration with sharp decrease in growth: 2 μm
[2]; in vitro
  concentrations that inhibit the growth of untransformed rice cells: ≥ 0.1 µM
[2]; lowest concentration used, 8-week culture
  concentration at which growth of control cells was halted: 0.1 μm
[3]; Nortai, pre-emergence, 63 g/ha
  reduction in plant height: about 20%
  reduction in yield: ~40%
[3]; [7]
  No. panicles/plant Mean: 15.7
  No. tillers/plant Mean: 20.0
  Plant height Mean: 117.3 cm
  Yield % 0×: 99 % 0×
  Yield Mean: 227.0 g/5 plants
[3]; [8]
  No. panicles/plant Mean: 13.9
  No. tillers/plant Mean: 13.5
  Plant height Mean: 94.5 cm
  Yield % 0×: 52 % 0×
  Yield Mean: 120.0 g/5 plants
[3]; [9]
  No. panicles/plant Mean: 0
  No. tillers/plant Mean: 0
  Plant height Mean: 0 cm
  Yield % 0×: 0 % 0×
  Yield Mean: 0 g/5 plants
[3]; pre-emergence, 63 g/ha
  No. panicles/plant Mean: 5.7
  No. tillers/plant Mean: 6.5
  Plant height Mean: 98.0 cm
  Yield % 0×: 56 % 0×
  Yield Mean: 110.7 g/5 plants
[3]; pre-emergence, 125 g/ha
  No. panicles/plant Mean: 0
  No. tillers/plant Mean: 0
  Plant height Mean: 0 cm
  Yield % 0×: 0 % 0×
  Yield Mean: 0 g/5 plants
[3]; pre-emergence, 250 g/ha
  No. panicles/plant Mean: 0
  No. tillers/plant Mean: 0
  Plant height Mean: 0 cm
  Yield % 0×: 0 % 0×
  Yield Mean: 0 g/5 plants
[3]; post-emergence, 250 g ai/ha
  fate of control plants: killed all plants
[3]; pre-emergence, 125 and 250 g/ha
  fate of control (Nortai) plants: completely killed
Untransformed rice seeds; 5 μM imazethapyr, 1 month treatment
  fate of control seeds: all control seeds died
Untransformed rice seeds; germination at 0.1 to 10 μM
  concentration at which untransformed seeds were completely inhibited: 1 µM
[4]
  fate of resistant transgenic plants: survived and continued to grow

## COCc1cnc(C2=NC(C)(C(C)C)C(=O)N2)c(C(=O)O)c1 (stereo not drawn) [RAPTOR ®, imazamox]
[5]
  injury to transgenic corn plants: no or slight injury
[6]; 10 g/ha
  plant heights of Ciccio and Colosseo reduced, less than those of transformed plants: 50%
[6]; 50 g/ha
  fate of non-transformed Ciccio: caused death
